Results reported in US20210213104A1, “GLUCAGON AND GLP-1 CO-AGONISTS FOR THE TREATMENT OF CHRONIC KIDNEY DISEASE AND DIABETIC KIDNEY DISEASE IN TYPE 2 DIABETES” (MEDIMMUNE LIMITED, priority 2020, published 2021).

Test system: subjects with T2DM and renal impairment
Test: Phase 2a: continuous glucose monitoring (CGM)
Assay type: in vivo, human
Details: ITT; for Average CGM Glucose Over 7-Day Periods, Difference in LS Mean Change (vs Placebo) / Average CGM Glucose Over 7-Day Periods, LS Mean Change / Percentage of time CGM Glucose in Clinically Significant Hypoglycemia (<54 mg/dL), Difference in LS Mean Change (vs Placebo) / Percentage of time CGM Glucose in Clinically Significant Hypoglycemia (<54 mg/dL), LS Mean Change / Percentage of time CGM Glucose in Hyperglycemia (>180 mg/dL), Difference in LS Mean Change (vs Placebo) / Percentage of time CGM Glucose in Hyperglycemia (>180 mg/dL), LS Mean Change / Percentage of time CGM Glucose in Hypoglycemia (<70 mg/dl), Difference in LS Mean Change (vs Placebo) / Percentage of time CGM Glucose in Hypoglycemia (<70 mg/dl), LS Mean Change / Average CGM Glucose Over 7-Day Periods, Change from Baseline to End of Dosing Period, Mean / Average CGM Glucose Over 7-Day Periods, Change from Baseline to End of Dosing Period, Median / Percentage of time CGM Glucose in Hyperglycemia (>180 mg/dL), Change from Baseline to End of Dosing Period, Mean / Percentage of time CGM Glucose in Hyperglycemia (>180 mg/dL), Change from Baseline to End of Dosing Period, Median: baseline Days −8 to −2; for Average CGM Glucose Over 7-Day Periods, Difference in LS Mean Change (vs Placebo) / Average CGM Glucose Over 7-Day Periods, LS Mean Change / Percentage of time CGM Glucose in Clinically Significant Hypoglycemia (<54 mg/dL), Difference in LS Mean Change (vs Placebo) / Percentage of time CGM Glucose in Clinically Significant Hypoglycemia (<54 mg/dL), LS Mean Change / Percentage of time CGM Glucose in Hyperglycemia (>180 mg/dL), Difference in LS Mean Change (vs Placebo) / Percentage of time CGM Glucose in Hyperglycemia (>180 mg/dL), LS Mean Change / Percentage of time CGM Glucose in Hypoglycemia (<70 mg/dl), Difference in LS Mean Change (vs Placebo) / Percentage of time CGM Glucose in Hypoglycemia (<70 mg/dl), LS Mean Change / Time in target range, LS Mean Change: ANCOVA; for Time in target range, LS Mean Change: 300 μg Dose (Days 26 to 32)
Procedure: Cotadutide was titrated from 50 μg up to 300 μg and administered once daily by subcutaneous (SC) injection over 32 days.
Cotadutide was administered at 50 μg once daily for 4 days, followed by 100 μg daily for 7 days, 200 μg daily for 7 days, and 300 μg daily for 14 days (n=20). Placebo was administered one daily for 32 days (n=20). Cotadutide and placebo were administered in the morning. Dosing commenced following predose baseline vital signs, blood tests (including HbA1c), an electrocardiogram (ECG), body weight measurement, and bioimpedance spectroscopy (BIS). Subjects then returned for daily dosing or remained overnight locally until Day 5, and thereafter, had visits at weekly intervals until a maintenance dose of 300 μg was established. Thus, Cotadutide or placebo was administered at the study site by study personal for the first four doses and on site on Days 5, 12, 19, and 32. At all other times, subjects preformed dosing at home.
A Freestyle Libre® Pro CGM device was used to measure interstitial glucose levels. […] Data generated by CGM was used at visits to adjust insulin doses and other treatments.
The CGM sensor, which is a small plastic circular device of 35 mm diameter and 5 mm depth, was applied to the back of the upper arm. Subjects wore the CGM sensor continuously up until the time of a sensor change, which was to occur within 14 days, and they were advised that they could bathe and shower, and swim in up to 3 m depth for up to 30 minutes while wearing the CGM sensor. When the CGM sensor was removed, a new CGM sensor could be reapplied, ideally close to the original site, but with the subject's site preference taken into account. CGM sensors were single-use only.
If a subject was unable to tolerate wearing the CGM sensor for the entire duration of the study, the sensor was removed; but the subject was to remain in the study with or without continued CGM and could instead be instructed to monitor capillary plasma glucose measurements four times per day (before meals and before bedtime) and record these levels in the diary provided.
Subjects underwent continuous glucose monitoring (CGM) starting from Day −14 to Day 40 (±5 days), with sensor changes within 14-day intervals. CGM readings were used to analyze change in average CGM glucose and glucose AUC7 d, coefficient of variation as a marker of glycemic variability, and time spent in target glucose range and hypoglycemia, to enable comparison across different dose levels.

SMILES: CCCCCCCCCCCCCCCC(=O)N[C@@H](CCC(=O)NCCCC[C@H](NC(=O)[C@H](CC(=O)O)NC(=O)[C@H](CO)NC(=O)[C@@H](NC(=O)[C@H](Cc1ccccc1)NC(=O)[C@@H](NC(=O)CNC(=O)[C@H](CCC(N)=O)NC(=O)[C@H](CO)NC(=O)[C@@H](N)Cc1c[nH]cn1)[C@@H](C)O)[C@@H](C)O)C(=O)N[C@@H](CO)C(=O)N[C@@H](CCC(=O)O)C(=O)N[C@@H](Cc1ccc(O)cc1)C(=O)N[C@@H](CC(C)C)C(=O)N[C@@H](CC(=O)O)C(=O)N[C@@H](CO)C(=O)N[C@@H](CCC(=O)O)C(=O)N[C@@H](CCCNC(=N)N)C(=O)N[C@@H](C)C(=O)N[C@@H](CCCNC(=N)N)C(=O)N[C@@H](CC(=O)O)C(=O)N[C@@H](Cc1ccccc1)C(=O)N[C@H](C(=O)N[C@@H](C)C(=O)N[C@@H](Cc1c[nH]c2ccccc12)C(=O)N[C@@H](CC(C)C)C(=O)N[C@@H](CCC(=O)O)C(=O)N[C@@H](C)C(=O)NCC(=O)NCC(=O)O)C(C)C)C(=O)O [Cotadutide]
- Average CGM Glucose Over 7-Day Periods, End of Dosing Period, Mean (300 μg (Days 19 to 25)): 124.894 mg/dL
- Average CGM Glucose Over 7-Day Periods, End of Dosing Period, Median (300 μg (Days 19 to 25)): 123.277 mg/dL
- Percentage of time CGM Glucose in Hyperglycemia (>180 mg/dL), End of Dosing Period, Mean (300 μg (Days 19 to 25)): 10.65%
- Percentage of time CGM Glucose in Hyperglycemia (>180 mg/dL), End of Dosing Period, Median (300 μg (Days 19 to 25)): 5.81%
- Average CGM Glucose Over 7-Day Periods, Difference in LS Mean Change (vs Placebo) (300 μg (Days 19 to 25)): -48.97 mg/dL
- Average CGM Glucose Over 7-Day Periods, LS Mean Change (300 μg (Days 19 to 25)): -38.75 mg/dL
- Percentage of time CGM Glucose in Clinically Significant Hypoglycemia (<54 mg/dL), Difference in LS Mean Change (vs Placebo) (300 μg (Days 19 to 25)): 4.57%
- Percentage of time CGM Glucose in Clinically Significant Hypoglycemia (<54 mg/dL), LS Mean Change (300 μg (Days 19 to 25)): 3.58%
- Percentage of time CGM Glucose in Hyperglycemia (>180 mg/dL), Difference in LS Mean Change (vs Placebo) (300 μg (Days 19 to 25)): −23.47%
- Percentage of time CGM Glucose in Hyperglycemia (>180 mg/dL), LS Mean Change (300 μg (Days 19 to 25)): −23.47%
- Percentage of time CGM Glucose in Hypoglycemia (<70 mg/dl), Difference in LS Mean Change (vs Placebo) (300 μg (Days 19 to 25)): 4.25%
- Percentage of time CGM Glucose in Hypoglycemia (<70 mg/dl), LS Mean Change (300 μg (Days 19 to 25)): 3.39%
- Average CGM Glucose Over 7-Day Periods, Change from Baseline to End of Dosing Period, Mean (300 μg (Days 19 to 25)): -38.623 mg/dL
- Average CGM Glucose Over 7-Day Periods, Change from Baseline to End of Dosing Period, Median (300 μg (Days 19 to 25)): -35.498 mg/dL
- Percentage of time CGM Glucose in Hyperglycemia (>180 mg/dL), Change from Baseline to End of Dosing Period, Mean (300 μg (Days 19 to 25)): −23.50%
- Percentage of time CGM Glucose in Hyperglycemia (>180 mg/dL), Change from Baseline to End of Dosing Period, Median (300 μg (Days 19 to 25)): −19.64%
- Average CGM Glucose Over 7-Day Periods, End of Dosing Period, Mean (300 μg (Days 26 to 32)): 125.382 mg/dL
- Average CGM Glucose Over 7-Day Periods, End of Dosing Period, Median (300 μg (Days 26 to 32)): 121.594 mg/dL
- Percentage of time CGM Glucose in Hyperglycemia (>180 mg/dL), End of Dosing Period, Mean (300 μg (Days 26 to 32)): 10.00%
- Percentage of time CGM Glucose in Hyperglycemia (>180 mg/dL), End of Dosing Period, Median (300 μg (Days 26 to 32)): 4.38%
- Average CGM Glucose Over 7-Day Periods, Difference in LS Mean Change (vs Placebo) (300 μg (Days 26 to 32)): -47.89 mg/dL
- Average CGM Glucose Over 7-Day Periods, LS Mean Change (300 μg (Days 26 to 32)): -41.37 mg/dL
- Percentage of time CGM Glucose in Clinically Significant Hypoglycemia (<54 mg/dL), Difference in LS Mean Change (vs Placebo) (300 μg (Days 26 to 32)): 1.58%
- Percentage of time CGM Glucose in Clinically Significant Hypoglycemia (<54 mg/dL), LS Mean Change (300 μg (Days 26 to 32)): 0.13%
- Percentage of time CGM Glucose in Hyperglycemia (>180 mg/dL), Difference in LS Mean Change (vs Placebo) (300 μg (Days 26 to 32)): −18.94%
- Percentage of time CGM Glucose in Hyperglycemia (>180 mg/dL), LS Mean Change (300 μg (Days 26 to 32)): −25.15%
- Percentage of time CGM Glucose in Hypoglycemia (<70 mg/dl), Difference in LS Mean Change (vs Placebo) (300 μg (Days 26 to 32)): 4.91%
- Percentage of time CGM Glucose in Hypoglycemia (<70 mg/dl), LS Mean Change (300 μg (Days 26 to 32)): 3.09%
- Average CGM Glucose Over 7-Day Periods, Change from Baseline to End of Dosing Period, Mean (300 μg (Days 26 to 32)): -41.401 mg/dL
- Average CGM Glucose Over 7-Day Periods, Change from Baseline to End of Dosing Period, Median (300 μg (Days 26 to 32)): -51.123 mg/dL
- Percentage of time CGM Glucose in Hyperglycemia (>180 mg/dL), Change from Baseline to End of Dosing Period, Mean (300 μg (Days 26 to 32)): −25.49%
- Percentage of time CGM Glucose in Hyperglycemia (>180 mg/dL), Change from Baseline to End of Dosing Period, Median (300 μg (Days 26 to 32)): −23.12%
- Time in target range, LS Mean Change (Insulin Dose < 20 U/day): 17.13%
- Time in target range, LS Mean Change (Insulin Dose ≥ 20 U/day): 10.40%
- Time in target range, LS Mean Change (Total): 14.79%
